The experiment concerns the target PARP7 (Homo sapiens (Human), UniProt Q7Z3E1). Kind of experiment: TR-FRET assay: displacement of biotinylated Probe A from the TIPARP active site (Enzymatic Assay for Inhibition of PARP7). In kind it is binding. The note with it: TIPARP 6 nM, Probe A 2 nM, 25° C. The gist of the method: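 6 nM His-tagged TIPARP and 2 nM biotinylated Probe A preincubated with compound 30 min at 25 °C in HEPES pH 8 buffer, then 4 nM ULight-anti-6×His and 0.25 nM Eu-streptavidin added for 30 min more. 665/615 nm ratio normalised to DMSO and 100 μM reference inhibitor controls; IC50 from 4-parameter fit.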

Structures are written as SMILES. pIC50: −log10 of the molar value. A value given as a limit tells only on which side of the number the result lay.

Sequence of PARP7 (Q7Z3E1 whole entry): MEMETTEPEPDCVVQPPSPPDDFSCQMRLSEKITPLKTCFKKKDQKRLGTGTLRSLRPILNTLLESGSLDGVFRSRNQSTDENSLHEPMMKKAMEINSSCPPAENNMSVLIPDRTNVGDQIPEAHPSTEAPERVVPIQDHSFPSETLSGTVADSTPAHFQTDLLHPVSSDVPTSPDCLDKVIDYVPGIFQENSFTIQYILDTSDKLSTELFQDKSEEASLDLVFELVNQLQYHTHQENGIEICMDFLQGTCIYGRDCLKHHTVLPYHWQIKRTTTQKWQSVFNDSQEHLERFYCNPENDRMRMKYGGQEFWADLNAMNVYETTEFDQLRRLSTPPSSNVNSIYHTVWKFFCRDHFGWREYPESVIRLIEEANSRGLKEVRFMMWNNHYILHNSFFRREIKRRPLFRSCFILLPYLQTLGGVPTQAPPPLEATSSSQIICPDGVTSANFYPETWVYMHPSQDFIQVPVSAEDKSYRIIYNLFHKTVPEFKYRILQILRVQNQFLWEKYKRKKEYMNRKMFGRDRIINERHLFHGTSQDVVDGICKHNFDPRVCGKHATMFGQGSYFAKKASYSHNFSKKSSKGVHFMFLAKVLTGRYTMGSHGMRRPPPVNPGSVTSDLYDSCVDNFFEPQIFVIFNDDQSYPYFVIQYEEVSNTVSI

Turning to `COC[C@@H](CO[C@@H]1CCN(C2CCN(c3ccc(C#N)cn3)CC2)C1=O)Nc1cn[nH]c(=O)c1C(F)(F)F` [Example 17B, 6-(4-((R)-3-((S)-3-methoxy-2-((6-oxo-5-(trifluoromethyl)-1,6-dihydropyridazin-4-yl)amino)propoxy)-2-oxopyrrolidin-1-yl)piperidin-1-yl)nicotinonitrile], the pIC50 is greater than 7.00.
With `COC[C@@H](COCC(=O)N(C)C1CCN(c2ncc(C(F)(F)F)cn2)CC1)Nc1cn[nH]c(=O)c1C(F)(F)F` [Example 9, (S)-2-(3-methoxy-2-((6-oxo-5-(trifluoromethyl)-1,6-dihydropyridazin-4-yl)amino)propoxy)-N-methyl-N-(1-(5-(trifluoromethyl)pyrimidin-2-yl)piperidin-4-yl)acetamide] the figure was greater than 7.00; with `C[C@@H](COC1CCN(C2CCN(c3cnc(C(F)(F)F)cn3)CC2)C1=O)Nc1cn[nH]c(=O)c1Br` (stereo partly drawn) [Example 12, 4-bromo-5-(((2S)-1-((2-oxo-1-(1-(5-(trifluoromethyl)pyrazin-2-yl)piperidin-4-yl)pyrrolidin-3-yl)oxy)propan-2-yl)amino)pyridazin-3(2H)-one], greater than 7.00.
`C[C@@H](CO[C@@H]1CCN(C2CCN(c3ncc(C(F)(F)F)cn3)CC2)C1=O)Oc1cn[nH]c(=O)c1C(F)(F)F` [Example 20B, 5-(((S)-1-(((R)-2-oxo-1-(1-(5-(trifluoromethyl)pyrimidin-2-yl)piperidin-4-yl)pyrrolidin-3-yl)oxy)propan-2-yl)oxy)-4-(trifluoromethyl)pyridazin-3(2H)-one] had a negative logarithm of the IC50 (pIC50) greater than 7.00.
In the case of `C[C@@H](COCC(=O)N(C)C1CCN(c2cnc(C(F)(F)F)cn2)CC1)Nc1cn[nH]c(=O)c1C(F)(F)F` [Example 4, (S)—N-methyl-2-(2-(6-oxo-5-(trifluoromethyl)-1,6-dihydropyridazin-4-ylamino)propoxy)-N-(1-(5-(trifluoromethyl)pyrazin-2-yl)piperidin-4-yl)acetamide], the negative logarithm of the IC50 (pIC50) was greater than 7.00.
Molecule `C[C@@H](COCC(=O)N(C)C1CCN(c2ccc(C#N)cn2)CC1)Nc1cn[nH]c(=O)c1C(F)(F)F` [Example 6, (S)—N-(1-(5-cyanopyridin-2-yl)piperidin-4-yl)-N-methyl-2-(2-((6-oxo-5-(trifluoromethyl)-1,6-dihydropyridazin-4-yl)amino)propoxy)acetamide] showed a pIC50 greater than 7.00.
For `C[C@@H](CO[C@H]1CCN(C2CCN(c3ccc(C#N)cn3)CC2)C1=O)Nc1cn[nH]c(=O)c1C(F)(F)F` [Example 14A, 6-(4-((S)-2-oxo-3-((S)-2-((6-oxo-5-(trifluoromethyl)-1,6-dihydropyridazin-4-yl)amino)propoxy)pyrrolidin-1-yl)piperidin-1-yl)nicotinonitrile] the value was no more than 6.00; for `COC[C@@H](CO[C@H]1CCN(C2CCN(c3ncc(C(F)(F)F)cn3)CC2)C1=O)Oc1cn[nH]c(=O)c1Br` [Example 56A, 4-Bromo-5-(((S)-1-methoxy-3-(((S)-2-oxo-1-(1-(5-(trifluoromethyl)pyrimidin-2-yl)piperidin-4-yl)pyrrolidin-3-yl)oxy)propan-2-yl)oxy)pyridazin-3(2H)-one], no more than 6.00.
For `C[C@@H](CO[C@@H]1CCN([C@H]2CCN(c3ncc(C(F)(F)F)cn3)C[C@H]2O)C1=O)Nc1cn[nH]c(=O)c1C(F)(F)F` [Example 60, 5-(((S)-1-(((R)-1-((3R,4S)-3-hydroxy-1-(5-(trifluoromethyl)pyrimidin-2-yl)piperidin-4-yl)-2-oxopyrrolidin-3-yl)oxy)propan-2-yl)amino)-4-(trifluoromethyl)pyridazin-3(2H)-one] the value was greater than 7.00.
The molecule `C[C@@H](CO[C@@H]1CCN(C2CCN(c3cnc(C(F)(F)F)cn3)CC2)C1=O)Nc1cn[nH]c(=O)c1C(F)(F)F` [Example 13B, 5-(((S)-1-(((R)-2-oxo-1-(1-(5-(trifluoromethyl)pyrazin-2-yl)piperidin-4-yl)pyrrolidin-3-yl)oxy)propan-2-yl)amino)-4-(trifluoromethyl)pyridazin-3(2H)-one] showed a negative-log IC50 (pIC50) greater than 7.00.
Consider `C[C@H](CN[C@@H]1CCN(C2CCN(c3ncc(C(F)(F)F)cn3)CC2)C1=O)Nc1cn[nH]c(=O)c1C(F)(F)F` (single isomer, unassigned) [Example 26D], for which the pIC50 was 6.00 to 7.00.
With `C[C@@H](CO[C@H]1C(=O)N(C2CCN(c3ncc(C(F)(F)F)cn3)CC2)CC1(C)C)Nc1cn[nH]c(=O)c1C(F)(F)F` [Example 35B, 5-(((S)-1-(((R)-4,4-dimethyl-2-oxo-1-(1-(5-(trifluoromethyl)pyrimidin-2-yl)piperidin-4-yl)pyrrolidin-3-yl)oxy)propan-2-yl)amino)-4-(trifluoromethyl)pyridazin-3(2H)-one] the figure was greater than 7.00.
With `CC(=O)NC[C@@H](CO[C@@H]1CCN(C2CCN(c3ncc(C(F)(F)F)cn3)CC2)C1=O)Nc1cn[nH]c(=O)c1C(F)(F)F` [Example 66, N—((S)-3-(((R)-2-oxo-1-(1-(5-(trifluoromethyl)pyrimidin-2-yl)piperidin-4-yl)pyrrolidin-3-yl)oxy)-2-((6-oxo-5-(trifluoromethyl)-1,6-dihydropyridazin-4-yl)amino)propyl)acetamide] the figure was greater than 7.00; with `C[C@@H](COCC(=O)NC1CCN(c2ncc(C(F)(F)F)cn2)CC1)Nc1cn[nH]c(=O)c1C(F)(F)F` [Example 1, (S)-2-(2-(6-oxo-5-(trifluoromethyl)-1,6-dihydropyridazin-4-ylamino)propoxy)-N-(1-(5-(trifluoromethyl)pyrimidin-2-yl)piperidin-4-yl)acetamide], greater than 7.00.
The molecule `C[C@@H](CO[C@@H]1CCN(C2CCN(c3ncc(C(F)(F)F)cn3)CC2C(N)=O)C1=O)Nc1cn[nH]c(=O)c1C(F)(F)F` (stereo partly drawn) [Example 68, 4-((R)-2-oxo-3-((S)-2-((6-oxo-5-(trifluoromethyl)-1,6-dihydropyridazin-4-yl)amino)propoxy)pyrrolidin-1-yl)-1-(5-(trifluoromethyl)pyrimidin-2-yl)piperidine-3-carboxamide] gave a negative-log IC50 (pIC50) greater than 7.00.
For `O=C1[C@H](OC[C@H](CO)Nc2cn[nH]c(=O)c2C(F)(F)F)CCN1C1CCN(c2ncc(C(F)(F)F)cn2)CC1` [Example 63, 5-(((S)-1-hydroxy-3-(((R)-2-oxo-1-(1-(5-(trifluoromethyl)pyrimidin-2-yl)piperidin-4-yl)pyrrolidin-3-yl)oxy)propan-2-yl)amino)-4-(trifluoromethyl)pyridazin-3(2H)-one] the value was greater than 7.00; for `CN(C(=O)COC[C@@H]1CCN1c1cn[nH]c(=O)c1C(F)(F)F)C1CCN(c2ncc(C(F)(F)F)cn2)CC1` [Example 8, (S)—N-methyl-2-((1-(6-oxo-5-(trifluoromethyl)-1,6-dihydropyridazin-4-yl)azetidin-2-yl)methoxy)-N-(1-(5-(trifluoromethyl)pyrimidin-2-yl)piperidin-4-yl)acetamide], greater than 7.00.
For `Cc1cnc(N2CCC(N3CC[C@H](OC[C@H](C)Oc4cn[nH]c(=O)c4C(F)(F)F)C3=O)CC2)nc1` [Example 49A, 5-(((S)-1-(((S)-1-(1-(5-methylpyrimidin-2-yl)piperidin-4-yl)-2-oxopyrrolidin-3-yl)oxy)propan-2-yl)oxy)-4-(trifluoromethyl)pyridazin-3(2H)-one] the value was 6.00 to 7.00; for `C[C@@H](COC1CCN(C2CCN(c3ncc(C(F)(F)F)cn3)CC2)C1=O)Nc1cn[nH]c(=O)c1Cl` (stereo partly drawn) [Example 11, 4-chloro-5-((S)-1-(2-oxo-1-(1-(5-(trifluoromethyl)pyrimidin-2-yl)piperidin-4-yl)pyrrolidin-3-yloxy)propan-2-ylamino)pyridazin-3(2H)-one], greater than 7.00; for `C[C@@H](CO[C@H]1CCN(C2CCN(c3cnc(C(F)F)cn3)CC2)C1=O)Nc1cn[nH]c(=O)c1C(F)(F)F` [Example 22A, 5-(((S)-1-(((S)-1-(1-(5-(difluoromethyl)pyrazin-2-yl)piperidin-4-yl)-2-oxopyrrolidin-3-yl)oxy)propan-2-yl)amino)-4-(trifluoromethyl)pyridazin-3(2H)-one], 6.00 to 7.00.
For `COC[C@@H](CO[C@@H]1CCN(C2CCN(c3ncc(C#N)s3)CC2)C1=O)Nc1cn[nH]c(=O)c1C(F)(F)F` [Example 54, 2-(4-((R)-3-((S)-3-methoxy-2-((6-oxo-5-(trifluoromethyl)-1,6-dihydropyridazin-4-yl)amino)propoxy)-2-oxopyrrolidin-1-yl)piperidin-1-yl)thiazole-5-carbonitrile] the value was greater than 7.00; for `C[C@@H](CO[C@H]1C(=O)N(C2CCN(c3ncc(C(F)(F)F)cn3)CC2)C[C@@H]1C)Nc1cn[nH]c(=O)c1C(F)(F)F` [Example 37B, 5-(((S)-1-(((3R,4S)-4-methyl-2-oxo-1-(1-(5-(trifluoromethyl)pyrimidin-2-yl)piperidin-4-yl)pyrrolidin-3-yl)oxy)propan-2-yl)amino)-4-(trifluoromethyl)pyridazin-3(2H)-one], greater than 7.00; for `C[C@@H](CO[C@@H]1CCN(C2CCN(c3ncc(F)cn3)CC2)C1=O)Nc1cn[nH]c(=O)c1C(F)(F)F` [Example 42, 5-(((S)-1-(((R)-1-(1-(5-fluoropyrimidin-2-yl)piperidin-4-yl)-2-oxopyrrolidin-3-yl)oxy)propan-2-yl)amino)-4-(trifluoromethyl)pyridazin-3(2H)-one], greater than 7.00.
Turning to `C[C@@H](CN[C@H]1CCN(C2CCN(c3ncc(C(F)(F)F)cn3)CC2)C1=O)Nc1cn[nH]c(=O)c1C(F)(F)F` (single isomer, unassigned) [Example 26A], the pIC50 is no more than 6.00.
`C[C@@H](CO[C@@H]1CCN(C2CCN(c3cnc(C(F)F)cn3)CC2)C1=O)Nc1cn[nH]c(=O)c1C(F)(F)F` [Example 22B, 5-(((S)-1-(((R)-1-(1-(5-(difluoromethyl)pyrazin-2-yl)piperidin-4-yl)-2-oxopyrrolidin-3-yl)oxy)propan-2-yl)amino)-4-(trifluoromethyl)pyridazin-3(2H)-one] had a pIC50 greater than 7.00.

The record behind these values is US11691969B2, “Pyridazinones as PARP7 inhibtors” (Ribon Therapeutics, Inc., priority 2019, dated 2023).
